Results published in patent publication US8802866B2, “Pyridinylimidazolone derivatives for the inhibition of PI3 kinases” (Merck Patent GmbH, priority 2009, dated 2014).

Assays:
[1] = molecular target: recombinant PI3Kalpha (shortened form of the catalytic subunit) (Homo sapiens, UniProt P42336); experiment: BIACORE PI3K binding assay (SPR); settings: 25° C.
Protocol: SPR measurements of the binding affinities and binding kinetics on PI3Kalpha surfaces with the aid of Biacore systems. The experiments are carried out on a Biacore S51 “Compound Characterization” or a Biacore T100 instrument utilising the default application “Kinetics/Affinity” Experimental conditions: recombinant PI3Kalpha (shortened form of the catalytic subunit, missing N terminal from about 100 to 150 aa, Mw about 110 kDa, prepared by Proteros Biostructures GmbH) is immobilised on Biacore CM5 chips (25° C., flow rate: 10 μl/min, utilising amine coupling at pH 7.40—Biacore Standard protocol). PI3Kalpha is employed in concentrations between 10 and 25 μg/ml. Depending on the duration of the injection time, immobilisation levels from 1700 to 11000 RU are achieved. The substances to be measured are added in the form of a titration series. The substance concentration is doubled for each subsequent injection. 10 different substance concentrations which cover a 500-fold dilution range are usually injected. […] Kinetic titration experiments are carried out at 25° C. with a flow rate of 30 μl/min, the sample contact time is 180 s, and the dissociation time is 240 s in a running buffer (20 mM HEPES pH7.40, 150 mM NaCl, 5 mM MgCl2, 1 mM DTT, 0.1 mM EDTA, 0.05% Tween 20) comprising 2% of DMSO. Buffer injections (as double references) identical to the sample injections are carried out in each case at the beginning of a continuous series. Solvent correction cycles (eight correction points, 1.4%-2.8% DMSO) are carried out at equal intervals. In order to condition the surface, at least five start-up cycles (buffer injections) are carried out. Data points are collected with a sample rate of 10 Hz. Surface regeneration is carried out after each measurement cycle, apart from after the solvent correction runs. For this purpose, two times 100 mM NaHCO3 pH 8.60 are injected for 30 sec. Data sets are processed and analysed using the Biacore S51 Evaluation software, version 1.2.1, or Biacore T100 Evaluation, version 2.0. Solvent-corrected and double-referenced association and dissociation phase data are adapted to a simple 1:1 interaction model with mass transport limitations.

PI3Kbeta = PI3Kbeta (Homo sapiens, UniProt P42338); experiment: Biochemical PI3Kbeta assay (neomycin SPA, lipid phosphorylation); settings: human recombinant GST-PI3K
Protocol: (§1) The efficacy of the compounds according to the invention in the inhibition of PI3K-induced lipid phosphorylation can be investigated in the following binding assay. The assay combines scintillation proximity assay (SPA) technology (Amersham) with the ability of neomycin (a polycationic antibiotic) to bind phospholipids with high affinity and specificity. […] The coating of SPA beads with neomycin allows the detection of phosphorylated lipid substrates after incubation with recombinant PI3K and radioactive ATP in the same well by trapping the radioactive phospholipids by the SPA beads owing to their specific binding to neomycin. […] After incubation at room temperature for 120 minutes with gentle stirring, the reaction was stopped by addition of 200 μl of a solution comprising 250 μg of neomycin-coated PVT-SPA beads, ATP 60 mM and EDTA 6.2 mM in PBS. The assay is incubated at room temperature for a further 60 minutes with gentle stirring in order to enable binding of the phospholipids to the neomycin-SPA beads. After precipitation of the neomycin-coated PVT-SPA beads over 5 minutes at 1500×g, radioactive Ptdlns(3)P is quantified by scintillation counting in a Wallac Micro-Beta™ plate counter.

DNA-PK protein complex = DNA-PK protein complex (Homo sapiens, UniProt P78527); experiment: Biochemical DNA-PK assay (FlashPlate)
Protocol: The kinase assay is carried out in […] microtitre FlashPlates®, coated with streptavidin. […] The reaction is stopped by addition of 50 μl/well of 200 mM EDTA. After incubation for 30 minutes, the liquids are removed at room temperature. Each well is washed three times with 100 μl of 0.9% NaCl solution. Non-specific reaction (blank) is determined using a proprietary kinase inhibitor (10 μM). The radioactivity is measured by means of a Topcount. […] Todd Eary, J. G. Schiro, H. Huang, L. E. Burgess, E. A. Kesicki, and J. Halbrook.

PI3Kalpha = PI3Kalpha (Homo sapiens, UniProt P42336); experiment: Biochemical PI3Kalpha assay (neomycin SPA, lipid phosphorylation); settings: human recombinant GST-PI3K
Protocol: as §1

[2] = test system: PI3K-dependent phosphorylation of PKB at Serin 473 in PC3 cells; experiment: Cellular PI3K assay (P-S473-PKB Luminex assay in PC3 cells); type: cell-based; settings: Homo sapiens, PC-3, 0.5 h; PC3 cells, 30 min, serum-free, P-S473-PKB; read-out: IC50 (cell)
Protocol: The cellular assay for determination of the P-S473-PKB level is carried out as a Luminex assay in 96-well format in PC3 cells.
PC3 cells are sown out with 20,000 cells per well in 100 μl medium (45% […]/45% Ham's F12/10% FCS) and incubated on the following day for 30 min with a serial dilution of the test substance (7 concentrations) under serum-free conditions. The cells are subsequently lysed using 90 μl of lysis buffer (20 mM Tris/HCl pH 8.0, 150 mM NaCl, 1% NP40, 10% glycerol, 1% phosphatase inhibitor I, 1% phosphatase inhibitor II, 0.1% protease inhibitor cocktail III, 0.01% benzonase) per well, and the lysates are separated off from insoluble cell constituents by means of centrifugation through a 96-well filter plate (0.65 μm). The lysates are incubated overnight at 4° C. with shaking with Luminex beads to which an anti-total PKB antibody is coupled. The detection is carried out on the following day by addition of a P-S473-PKB antibody and a species-specific PE-labelled secondary antibody. The detection of P-S473-PKB is carried out by measurement in a Luminex100 instrument by determination of 100 events per cavity in a measurement time of 60 sec.

PI3Kalpha, sequence (P42336 whole entry): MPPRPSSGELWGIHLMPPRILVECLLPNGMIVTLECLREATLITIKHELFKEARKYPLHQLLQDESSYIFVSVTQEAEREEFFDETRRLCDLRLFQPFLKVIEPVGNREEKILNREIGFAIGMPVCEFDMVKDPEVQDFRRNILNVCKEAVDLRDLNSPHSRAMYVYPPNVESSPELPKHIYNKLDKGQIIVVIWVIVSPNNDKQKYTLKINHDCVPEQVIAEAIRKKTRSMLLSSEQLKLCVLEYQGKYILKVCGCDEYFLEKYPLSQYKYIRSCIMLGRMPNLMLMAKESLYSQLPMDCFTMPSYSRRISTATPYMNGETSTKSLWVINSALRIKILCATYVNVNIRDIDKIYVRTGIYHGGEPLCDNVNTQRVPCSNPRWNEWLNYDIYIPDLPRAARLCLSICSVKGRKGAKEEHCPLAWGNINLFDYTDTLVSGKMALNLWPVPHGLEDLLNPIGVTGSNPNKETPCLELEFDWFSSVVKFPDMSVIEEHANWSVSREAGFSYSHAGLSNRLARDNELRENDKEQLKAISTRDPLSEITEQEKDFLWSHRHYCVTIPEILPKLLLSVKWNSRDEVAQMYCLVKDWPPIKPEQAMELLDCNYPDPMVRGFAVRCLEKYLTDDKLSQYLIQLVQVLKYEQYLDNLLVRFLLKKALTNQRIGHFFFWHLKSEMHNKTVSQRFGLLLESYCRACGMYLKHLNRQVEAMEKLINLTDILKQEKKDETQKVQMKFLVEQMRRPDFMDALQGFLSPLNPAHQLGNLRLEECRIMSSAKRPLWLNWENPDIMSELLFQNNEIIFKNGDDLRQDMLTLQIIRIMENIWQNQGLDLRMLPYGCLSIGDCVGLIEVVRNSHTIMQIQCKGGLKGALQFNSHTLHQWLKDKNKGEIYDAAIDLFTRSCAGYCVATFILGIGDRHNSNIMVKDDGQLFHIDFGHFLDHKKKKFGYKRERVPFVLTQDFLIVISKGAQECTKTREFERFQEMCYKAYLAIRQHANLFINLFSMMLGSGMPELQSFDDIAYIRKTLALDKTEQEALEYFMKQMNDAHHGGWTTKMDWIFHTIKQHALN
PI3Kalpha, sequence (P27986 whole entry partner): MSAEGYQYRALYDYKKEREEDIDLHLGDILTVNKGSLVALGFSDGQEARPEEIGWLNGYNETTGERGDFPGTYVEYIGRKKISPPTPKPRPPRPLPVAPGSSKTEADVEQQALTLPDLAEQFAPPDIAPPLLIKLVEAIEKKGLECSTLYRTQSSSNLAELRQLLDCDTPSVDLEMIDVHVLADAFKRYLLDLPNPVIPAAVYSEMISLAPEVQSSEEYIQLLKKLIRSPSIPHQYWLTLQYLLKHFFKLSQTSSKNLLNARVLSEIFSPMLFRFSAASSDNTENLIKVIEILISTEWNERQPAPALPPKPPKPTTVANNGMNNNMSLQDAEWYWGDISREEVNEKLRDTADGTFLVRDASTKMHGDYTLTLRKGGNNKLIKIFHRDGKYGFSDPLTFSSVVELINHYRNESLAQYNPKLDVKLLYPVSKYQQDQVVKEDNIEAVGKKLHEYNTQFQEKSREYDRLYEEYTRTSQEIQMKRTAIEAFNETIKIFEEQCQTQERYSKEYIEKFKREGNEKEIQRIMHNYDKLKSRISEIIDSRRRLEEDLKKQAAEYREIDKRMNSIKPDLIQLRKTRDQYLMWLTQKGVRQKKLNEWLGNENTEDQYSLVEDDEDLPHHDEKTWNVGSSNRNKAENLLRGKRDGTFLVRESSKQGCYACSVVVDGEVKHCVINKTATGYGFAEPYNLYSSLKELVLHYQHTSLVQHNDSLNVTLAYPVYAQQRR
PI3Kbeta, sequence (P42338 whole entry): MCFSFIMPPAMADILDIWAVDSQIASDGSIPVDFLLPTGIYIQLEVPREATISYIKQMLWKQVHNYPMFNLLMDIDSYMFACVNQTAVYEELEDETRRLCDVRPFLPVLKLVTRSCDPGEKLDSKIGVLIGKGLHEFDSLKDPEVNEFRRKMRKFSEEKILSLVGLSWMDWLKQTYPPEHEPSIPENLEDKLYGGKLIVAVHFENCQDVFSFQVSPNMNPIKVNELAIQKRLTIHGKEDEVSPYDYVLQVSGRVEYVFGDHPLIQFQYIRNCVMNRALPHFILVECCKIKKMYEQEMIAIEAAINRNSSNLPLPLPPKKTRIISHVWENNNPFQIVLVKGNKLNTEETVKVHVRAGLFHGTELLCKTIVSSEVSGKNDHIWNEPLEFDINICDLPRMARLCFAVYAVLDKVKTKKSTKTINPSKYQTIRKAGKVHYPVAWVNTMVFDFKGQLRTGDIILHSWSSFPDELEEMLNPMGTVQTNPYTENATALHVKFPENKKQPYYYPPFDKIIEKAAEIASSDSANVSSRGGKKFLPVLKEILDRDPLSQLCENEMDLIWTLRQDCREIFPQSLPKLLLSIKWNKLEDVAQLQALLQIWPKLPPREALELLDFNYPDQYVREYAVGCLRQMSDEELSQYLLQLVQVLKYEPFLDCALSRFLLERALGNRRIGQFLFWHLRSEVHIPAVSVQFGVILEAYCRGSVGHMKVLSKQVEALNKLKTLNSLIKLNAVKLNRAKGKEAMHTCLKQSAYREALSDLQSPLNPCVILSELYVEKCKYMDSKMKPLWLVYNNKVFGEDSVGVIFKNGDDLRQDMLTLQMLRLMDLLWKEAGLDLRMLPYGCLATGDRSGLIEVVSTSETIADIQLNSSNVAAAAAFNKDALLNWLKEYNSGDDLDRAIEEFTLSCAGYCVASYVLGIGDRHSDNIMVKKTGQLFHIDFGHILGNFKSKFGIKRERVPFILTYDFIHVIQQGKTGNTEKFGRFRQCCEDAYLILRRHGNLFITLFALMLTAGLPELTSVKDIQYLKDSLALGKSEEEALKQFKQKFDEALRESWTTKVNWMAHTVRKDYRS
PI3Kbeta, sequence (P27986 whole entry partner): as the sequence (P27986 whole entry partner) above
recombinant PI3Kalpha (shortened form of the catalytic subunit), sequence (P42336 151-1068 limits assumed): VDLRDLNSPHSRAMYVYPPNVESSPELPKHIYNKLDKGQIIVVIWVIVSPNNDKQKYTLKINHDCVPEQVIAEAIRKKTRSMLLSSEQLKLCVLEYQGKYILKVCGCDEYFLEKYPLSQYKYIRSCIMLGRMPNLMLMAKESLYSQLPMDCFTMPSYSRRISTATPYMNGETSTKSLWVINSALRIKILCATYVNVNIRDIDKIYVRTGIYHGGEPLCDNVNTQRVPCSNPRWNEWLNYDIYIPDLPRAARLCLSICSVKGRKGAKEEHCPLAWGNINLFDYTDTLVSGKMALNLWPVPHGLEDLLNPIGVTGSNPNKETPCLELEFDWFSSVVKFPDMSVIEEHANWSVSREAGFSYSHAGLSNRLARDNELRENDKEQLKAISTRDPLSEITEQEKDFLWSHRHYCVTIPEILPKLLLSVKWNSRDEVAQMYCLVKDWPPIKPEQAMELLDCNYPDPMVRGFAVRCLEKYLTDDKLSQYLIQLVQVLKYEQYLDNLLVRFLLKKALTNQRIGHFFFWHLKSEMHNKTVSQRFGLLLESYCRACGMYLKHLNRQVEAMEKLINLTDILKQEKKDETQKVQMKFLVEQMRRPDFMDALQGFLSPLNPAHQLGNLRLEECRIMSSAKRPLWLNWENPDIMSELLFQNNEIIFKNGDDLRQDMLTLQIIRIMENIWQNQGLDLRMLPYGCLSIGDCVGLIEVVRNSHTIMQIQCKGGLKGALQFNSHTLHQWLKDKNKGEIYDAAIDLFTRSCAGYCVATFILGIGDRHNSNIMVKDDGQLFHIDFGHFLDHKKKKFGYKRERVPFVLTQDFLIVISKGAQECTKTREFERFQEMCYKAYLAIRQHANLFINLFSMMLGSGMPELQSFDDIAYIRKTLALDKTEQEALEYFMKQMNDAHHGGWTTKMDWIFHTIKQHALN

| Structure (SMILES) | Kd [1] | IC50 (PI3Kbeta) | IC50 (DNA-PK protein complex) | IC50 (PI3Kalpha) | IC50 [2] |
| --- | --- | --- | --- | --- | --- |
| COc1ccc(Cn2c(-c3cc(-c4cnc5[nH]ccc5c4)ccn3)cn(C)c2=O)cc1 [Example A108, 3-(4-Methoxybenzyl)-1-methyl-4-[4-(1H-pyrrolo[2,3-b]pyridin-5-yl)pyridin-2-yl]-1,3-dihydroimidazol-2-one] | 0.1 to 10 µM | > 10 µM | 0.0001 to 0.1 µM | > 10 µM | 0.1 to 10 µM |
| COc1ccc(Cn2c(-c3cc(-c4cnc(NC(C)=O)c(C(F)(F)F)c4)ccn3)cn(C)c2=O)cc1 [Example A111, N-{2′-[3-(4-Methoxybenzyl)-1-methyl-2-oxo-2,3-dihydro-1H-imidazol-4-yl]-5-trifluoromethyl-[3,4′]bipyridinyl-6-yl}acetamide] |  | > 10 µM | > 10 µM | > 10 µM | > 10 µM |
| CC(=O)Nc1ncc(-c2ccnc(-c3cn(C)c(=O)n3-c3cccc(C#N)c3)c2)cc1C(F)(F)F [Example A68, N-{2′-[3-(3-Cyanophenyl)-1-methyl-2-oxo-2,3-dihydro-1H-imidazol-4-yl]-5-trifluoromethyl-[3,4′]bipyridinyl-6-yl}acetamide] |  | > 10 µM | 0.1 to 10 µM | 0.1 to 10 µM | 0.1 to 10 µM |
| Cn1cc(-c2cc(-c3cnc4[nH]ccc4n3)ccn2)n(-c2ccc(C(C)(C)C#N)cc2)c1=O [Example A78, 2-Methyl-2-(4-{3-methyl-2-oxo-5-[4-(5H-pyrrolo[2,3-b]pyrazin-2-yl)pyridin-2-yl]-2,3-dihydroimidazol-1-yl}phenyl)propionitrile] |  | 0.1 to 10 µM | 0.1 to 10 µM | 0.1 to 10 µM | 0.1 to 10 µM |
| Cc1cc2cc(-c3ccnc(-c4cn(C)c(=O)n4-c4cccc(Oc5ccccc5)c4)c3)cnc2[nH]1 [Example A104, 1-Methyl-4-[4-(2-methyl-1H-pyrrolo[2,3-b]pyridin-5-yl)pyridin-2-yl]-3-(3-phenoxy-phenyl)-1,3-dihydroimidazol-2-one] |  |  | 0.0001 to 0.1 µM | 0.1 to 10 µM | 0.1 to 10 µM |
| Cn1cc(-c2cc(-c3cnc4nccnc4c3)ccn2)n(-c2ccc(C(C)(C)C#N)cc2)c1=O [Example A81, 2-Methyl-2-{4-[3-methyl-2-oxo-5-(4-pyrido[2,3-b]pyrazin-7-ylpyridin-2-yl)-2,3-dihydroimidazol-1-yl]phenyl}propionitrile] |  | 0.1 to 10 µM | 0.0001 to 0.1 µM | 0.1 to 10 µM | > 10 µM |
| CNCc1ccc(-c2ccnc(-c3cn(C)c(=O)n3-c3ccc(C(C)(C)C#N)cc3)c2)cn1 [Example A95, 2-Methyl-2-{4-[3-methyl-5-(6-methylaminomethyl-[3,4′]bipyridinyl-2′-yl)-2-oxo-2,3-dihydroimidazol-1-yl]phenyl}propionitrile] |  | > 10 µM | 0.1 to 10 µM | > 10 µM | > 10 µM |
| Cn1cc(-c2cc(-c3cc(F)c(N)c(C(F)(F)F)c3)ccn2)n(-c2ccc(C(C)(C)C#N)cc2)c1=O [Example A107, 2-(4-{5-[4-(4-Amino-3-fluoro-5-trifluoromethylphenyl)pyridin-2-yl]-3-methyl-2-oxo-2,3-dihydroimidazol-1-yl}phenyl)-2-methylpropionitrile] |  |  | 0.0001 to 0.1 µM |  | 0.1 to 10 µM |
| Cn1cc(-c2cc(-c3cnc4[nH]ccc4c3)ccn2)n(-c2ccc(N3CCN(Cc4cccnc4)CC3)c(C(F)(F)F)c2)c1=O [Example A106, 1-Methyl-3-[4-(4-pyridin-3-ylmethylpiperazin-1-yl)-3-trifluoromethylphenyl]-4-[4-(1H-pyrrolo[2,3-b]pyridin-5-yl)pyridin-2-yl]-1,3-dihydroimidazol-2-one] |  |  | 0.1 to 10 µM |  | 0.0001 to 0.1 µM |
| Cn1cc(-c2cncc(-c3cnc4ccccc4c3)c2)n(-c2ccc(C(C)(C)C#N)cc2)c1=O [Example A2, 2-Methyl-2-{4-[3-methyl-2-oxo-5-(5-quinolin-3-ylpyridin-3-yl)-2,3-dihydroimidazol-1-yl]phenyl}propionitrile] |  |  | 0.1 to 10 µM |  |  |
| Cn1cc(-c2cc(-c3cnc(N)c(C#N)n3)ccn2)n(-c2ccc(C(C)(C)C#N)cc2)c1=O [Example A70, 3-Amino-6-(2-{3-[4-(cyanodimethylmethyl)phenyl]-1-methyl-2-oxo-2,3-dihydro-1H-imidazol-4-yl}pyridin-4-yl)pyrazine-2-carbonitrile] |  | 0.1 to 10 µM | 0.1 to 10 µM | 0.1 to 10 µM | 0.1 to 10 µM |
| Cn1cc(-c2cc(-c3c[nH]c4ncccc34)ccn2)n(-c2ccc(C(C)(C)C#N)cc2)c1=O [Example A100, 2-Methyl-2-(4-{3-methyl-2-oxo-5-[4-(1H-pyrrolo[2,3-b]pyridin-3-yl)pyridin-2-yl]-2,3-dihydroimidazol-1-yl}phenyl)propionitrile] |  | 0.1 to 10 µM | 0.1 to 10 µM | 0.1 to 10 µM | 0.1 to 10 µM |
| CN1CCN(c2ccc(-n3c(-c4cc(-c5cnc(N)c(C(F)(F)F)c5)ccn4)cn(C)c3=O)cc2C(F)(F)F)CC1 [Example A103, 4-(6-Amino-5-trifluoromethyl-[3,4′]bipyridinyl-2′-yl)-1-methyl-3-[4-(4-methyl-piperazin-1-yl)-3-trifluoromethylphenyl]-1,3-dihydroimidazol-2-one] |  | 0.1 to 10 µM | 0.1 to 10 µM | 0.1 to 10 µM | 0.1 to 10 µM |
| CN1CCN(c2ccc(-n3c(-c4cc(-c5ccc6[nH]ccc6c5)ccn4)cn(C)c3=O)cc2C(F)(F)F)CC1 [Example A102, 4-[4-(1H-Indol-5-yl)pyridin-2-yl]-1-methyl-3-[4-(4-methylpiperazin-1-yl)-3-trifluoromethylphenyl]-1,3-dihydroimidazol-2-one] |  |  | 0.1 to 10 µM | 0.1 to 10 µM | 0.1 to 10 µM |
| CN1CCN(c2ccc(-n3c(-c4cc(-c5cnc(N)c(C(F)(F)F)c5)ccn4)cn(C)c3=O)cc2C#N)CC1 [Example A82, 5-[5-(6-Amino-5-trifluoromethyl-[3,4′]bipyridinyl-2′-yl)-3-methyl-2-oxo-2,3-dihydroimidazol-1-yl]-2-(4-methylpiperazin-1-yl)benzonitrile] |  | 0.1 to 10 µM | 0.0001 to 0.1 µM | 0.1 to 10 µM | 0.1 to 10 µM |
| Cn1cc(-c2cc(-c3cnc4c(ccn4C)c3)ccn2)n(-c2ccc(C(C)(C)C#N)cc2)c1=O [Example A54, 2-Methyl-2-(4-{3-methyl-5-[4-(1-methyl-1H-pyrrolo[2,3-b]pyridin-5-yl)pyridin-2-yl]-2-oxo-2,3-dihydroimidazol-1-yl}phenyl)propionitrile] |  | 0.1 to 10 µM | 0.0001 to 0.1 µM | 0.1 to 10 µM | 0.1 to 10 µM |
